Assay results taken from patent US7666901B2, “Analogs of 17-hydroxywortmannin as PI3K inhibitors” (Wyeth, priority 2004, dated 2010).

Assays:
PI3K = test system: T1, PI3K; test: Fluorescence polarization assay for PI3K; type: biochemical
T1 construct: PI3K FP IC50
Method in brief: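 PI3K was preincubated with compound at 1% DMSO final, then reacted with PIP2/ATP substrate for 30-60 min. The reaction was stopped with a detector mix giving 10 nM red probe and 70 nM GST-GRP. Fluorescence polarization (mP, Tamra filters) was read 30-90 min later and IC50 determined.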

[1] = test system: LNCaP (human prostate carcinoma); test: Cell proliferation (MTS) assay, LNCaP; type: cell-based; conditions: three days treatment
Method in brief: (§1)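 Cells plated at about 3000 per well in RPMI-1640/10% FBS were dosed with compound one day later. Viability was read by MTS conversion (absorbance 490 nm, 1–2 h) three days after treatment began. Effect is expressed as percent of vehicle-treated growth on the same plate.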

[2] = test system: MDA468 (human breast cancer cell); test: Cell proliferation (MTS) assay, MDA468; type: cell-based; conditions: three days treatment
Method in brief: as §1

[3] = test system: DU145 (human prostate carcinoma/lymphocytic leukemia); test: Cell proliferation (MTS) assay, DU145; type: cell-based; conditions: three days treatment
Method in brief: as §1

[4] = test system: panel of seven colon tumor lines; test: Tumor cell growth assay, combination with MEK inhibitor, colon panel; type: cell-based, human
Protocol: (§2) Human tumor cell are all obtained from ATCC, and are cultured using standard cell culture methods. Cells are plated in 96-well culture plates at 1000 to 3000 cells per well. One day following plating, cells are treated with various doses of PI3K inhibitor Compound 4 or Compound 5 alone or with a low constant dose of MEK inhibitor 2-(2-chloro-4-iodoanilino)-N-(cycloprorylmethoxy-3,4-difluobenzamide) (1 μg/ml) or UO126 (5 μg/ml). UO126 is also known as 1,4-diamino-2,3-dicyano-1,4-bis[2-aminophenylthio]butadiene. In some experiments, cells are treated alone with various doses of the MEK inhibitor (2-(2-chloro-4-iodoanilino)-N-(cycloprorylmethoxy-3,4-difluobenzamide)), or HER2/neu inhibitor HKI-272, or mTOR inhibitor CCI-779, or with a low constant dose of Compound 4 (0.1 μg/ml). […] Three days after drug treatment, viable cell densities are determined by metabolic conversion (by viable cells) of the dye MTS, an established cell proliferation assay. […] The MTS assay results are read in a 96-well plate reader by measuring absorbance at 490 nm. The effect of each treatment is calculated as percent of control growth relative to the vehicle DMSO-treated cells grown in the same culture plate. […]

[5] = test system: MDA231 breast tumor cells; test: Tumor cell growth assay, combination with MEK inhibitor, MDA231; type: cell-based, human
Protocol: as §2

[6] = test system: DU145 prostrate tumor cells; test: Tumor cell growth assay, combination with MEK inhibitor, DU145; type: cell-based, human
Protocol: as §2

colon tumor cell lines = test: Tumor cell growth assay, combination with CCI-779, colon lines; type: cell-based, human; conditions: compound 4 at 0.1 μg/ml
Protocol: as §2

[7] = test system: PTEN-negative breast tumor cell lines; test: Tumor cell growth assay, combination with CCI-779, PTEN-negative breast lines; type: cell-based, human; conditions: compound 4 at 0.1 μg/ml
Protocol: as §2

[8] = test system: colon carcinoma, NSCLC, DU145 and MDA231 cell lines; test: Tumor cell growth assay, combination with MEK inhibitors, tumor line panel; type: cell-based, human; conditions: HCT116, HT29, SW620, SW480, LS-174T, Caco2, Lovo, A549, H157, DU145, MDA231
Protocol: as §2

## COC[C@H]1OC(=O)/C(=C/N(CCO)C(C)(C)C)C2=C(O)C(=O)C3=C([C@H](OC(C)=O)C[C@@]4(C)C3CC[C@@H]4O)[C@]21C (stereo partly drawn) [Compound 4, (1E,4S,4aR,5R,6aS,7S)-1-{[tert-butyl(2-hydroxyethyl)amino]methylene}-7,11-dihydroxy-4-(methoxymethyl)-4a,6a-dimethyl-2,10-dioxo-1,2,4,4a,5,6,6a,7,8,9,9a,10-dodecahydroindeno[4,5-h]isochromen-5-yl acetate]
PI3K; Table 1
  PI3K FP IC50: 0.596 µg/mL
PI3K; Table 2
  IC50: 1000 nM
[1]; Table 1
  LNCaP IC50: 0.09 µg/mL
[1]; Table 2
  LNCaP IC50: 0.05 µg/mL
[2]; Table 1
  MDA468 IC50: 0.3 µg/mL
[2]; Table 2
  MDA468 IC50: 0.51 µg/mL
[3]; Table 1
  DU145 IC50: 1.5 µg/mL
[3]; Table 2
  DU145 IC50: 1 µg/mL
[4]
  growth inhibition in combination with MEK inhibitor 2-(2-chloro-4-iodoanilino)-N-(cycloprorylmethoxy-3,4-difluobenzamide): synergistic growth inhibition
[5]
  growth inhibition in combination with MEK inhibitor 2-(2-chloro-4-iodoanilino)-N-(cycloprorylmethoxy-3,4-difluobenzamide): synergistic growth inhibition
[6]
  growth inhibition in combination with MEK inhibitor 2-(2-chloro-4-iodoanilino)-N-(cycloprorylmethoxy-3,4-difluobenzamide): synergistic growth inhibition
Colon tumor cell lines
  growth inhibition in combination with mTOR inhibitor CCI-779: synergistically inhibited growth
[7]
  growth inhibition in combination with mTOR inhibitor CCI-779: additive growth inhibition
[7]; listed as compound 4
  growth inhibition in combination with mTOR inhibitor CCI-779: synergistically inhibited growth
[8]
  growth inhibition in combination with MEK inhibitors UO126 and 2-(2-chloro-4-iodoanilino)-N-(cycloprorylmethoxy-3,4-difluobenzamide): broad synergistic growth inhibition
